Laboratory results published in ChEMBL document CHEMBL5357027, “Annonaceous Acetogenins Synergistically Inhibit Hepatocellular Carcinoma with Sorafenib” (J Nat Prod, 2024).
Activity calls are given as the source filed them. The calls are words filed in the database; no cut-off is given here.

Legend:
[1] = Toxicity in nude mouse xenografted with human HCCLM3 cells assessed as lung damage at 1 to 8 mg/kg, PO in presence of sorafenib measured for 21 days by H and E staining based analysis; assay type: organism-based; conditions: in vivo, 504 h, dose 1-8 mg/kg, time 21 day
[2] = Toxicity in nude mouse xenografted with human HCCLM3 cells assessed as decrease in body weight at 4 to 8 mg/kg, PO measured every other day for 21 days; assay type: organism-based; conditions: in vivo, 504 h, dose 4-8 mg/kg, time 21 day
HCCLM3 [3] = assay: Synergistic antitumor activity against human HCCLM3 cells xenografted in nude mouse assessed as induction of aPOptosis in tumor at 4 to 8 mg/kg, PO in presence of 32 mg/kg sorafenib and measured for 21 days by tunel staining based immunohistochemical analysis; assay type: functional, organism-based; conditions: dose 4-8 mg/kg, time 21.0 day
HCCLM3 [4] = assay: Synergistic inhibition of mitochondrial function in human HCCLM3 cells assessed as reduction in intracellular ATP level at 8 uM incubated for 48 hrs in presence of 16 uM sorafenib; assay type: functional, cell-based
MHCC97H [5] = assay: Inhibition of mitochondrial function in human MHCC97H cells assessed as reduction in ATP production at 8 uM incubated for 48 hrs; assay type: functional, cell-based
HCCLM3 [6] = assay: Inhibition of mitochondrial function in human HCCLM3 cells assessed as reduction in ATP production at 8 uM incubated for 48 hrs; assay type: functional, cell-based
HCCLM3 [7] = assay: Antitumor activity against human HCCLM3 cells xenografted in nude mouse assessed as decrease in tumor volume at 4 to 8 mg/kg, PO measured every other day for 21 days; assay type: functional, organism-based; conditions: dose 4-8 mg/kg, time 21.0 day
[8] = Toxicity in nude mouse xenografted with human HCCLM3 cells assessed as liver damage at 4 to 8 mg/kg, PO measured for 21 days by H and E staining based analysis; assay type: organism-based; conditions: in vivo, 504 h, dose 4-8 mg/kg, time 21 day
HCCLM3 [9] = assay: Cytotoxicity against human HCCLM3 cells assessed as cell growth inhibition incubated for 48 hrs by MTT assay; assay type: functional, cell-based; conditions: HCCLM3, 48 h
HCCLM3 [10] = assay: Induction of apoptosis in human HCCLM3 cells assessed as viable cells at 4 uM incubated for 48 hrs by Annexin V/FITC-PI staining based flow cytometry (reference value: 96.55%); assay type: functional; conditions: read-out: Activity
HCCLM3 [11] = assay: Synergistic antitumor activity against human HCCLM3 cells xenografted in nude mouse assessed as decrease in tumor volume at 4 to 8 mg/kg, PO in presence of 32 mg/kg sorafenib measured every other day for 21 days; assay type: functional, organism-based; conditions: dose 4-8 mg/kg, time 21.0 day
Huh-7 [12] = assay: Inhibition of mitochondrial function in human Huh-7 cells assessed as reduction in ATP production at 8 uM incubated for 48 hrs; assay type: functional, cell-based
Huh-7 [13] = assay: Synergistic cytotoxicity against human Huh-7 cells assessed as cell growth inhibition by measuring synergy score at 1 to 16 uM incubated for 48 hrs in presence of sorafenib at 1 to 16 uM by MTT assay; assay type: functional; conditions: dose 1-16 µM
HCCLM3 [14] = assay: Induction of apoptosis in human HCCLM3 cells assessed as early apoptotic cells at 4 uM incubated for 48 hrs by Annexin V/FITC-PI staining based flow cytometry (reference value: 0.05%); assay type: functional
HepG2 [15] = assay: Cytotoxicity against human HepG2 cells assessed as cell growth inhibition incubated for 48 hrs by MTT assay; assay type: functional, cell-based; conditions: HepG2, 48 h
HCCLM3 [16] = assay: Induction of apoptosis in human HCCLM3 cells assessed as apoptotic ratio at 4 uM incubated for 48 hrs in presence of 4uM sorafenib by Annexin V/FITC-PI staining based flow cytometry relative to control; assay type: functional
HCCLM3 [17] = assay: Induction of apoptosis in human HCCLM3 cells assessed as necrotic cells at 4 uM incubated for 48 hrs in presence of 4uM sorafenib by Annexin V/FITC-PI staining based flow cytometry (reference value: 3.33%); assay type: functional
[18] = Toxicity in nude mouse xenografted with human HCCLM3 cells assessed as heart damage at 1 to 8 mg/kg, PO in presence of sorafenib measured for 21 days by H and E staining based; assay type: organism-based; conditions: in vivo, 504 h, dose 1-8 mg/kg, time 21 day
HCCLM3 [19] = assay: Induction of apoptosis in human HCCLM3 cells assessed as late apoptotic cells at 4 uM incubated for 48 hrs by Annexin V/FITC-PI staining based flow cytometry (reference value: 0.07%); assay type: functional
HCCLM3 [20] = assay: Induction of apoptosis in human HCCLM3 cells assessed as necrotic cells at 4 uM incubated for 48 hrs by Annexin V/FITC-PI staining based flow cytometry (reference value: 3.33%); assay type: functional
HCCLM3 [21] = assay: Induction of apoptosis in human HCCLM3 cells assessed as viable cells at 4 uM incubated for 48 hrs in presence of 4uM sorafenib by Annexin V/FITC-PI staining based flow cytometry (reference value: 96.55%); assay type: functional; conditions: read-out: Activity
[22] = Toxicity in nude mouse xenografted with human HCCLM3 cells assessed as kidney damage at 1 to 8 mg/kg, PO in presence of sorafenib measured for 21 days by H and E staining based analysis; assay type: organism-based; conditions: in vivo, 504 h, dose 1-8 mg/kg, time 21 day
HepG2 [23] = assay: Synergistic inhibition of mitochondrial function in human HepG2 cells assessed as reduction in intracellular ATP level at 8 uM incubated for 48 hrs in presence of 16 uM sorafenib; assay type: functional, cell-based
[24] = Toxicity in nude mouse xenografted with human HCCLM3 cells assessed as heart damage at 4 to 8 mg/kg, PO measured for 21 days by H and E staining based; assay type: organism-based; conditions: in vivo, 504 h, dose 4-8 mg/kg, time 21 day
MHCC97H [25] = assay: Cytotoxicity against human MHCC97H cells assessed as cell growth inhibition incubated for 48 hrs by MTT assay; assay type: functional, cell-based
Huh-7 [26] = assay: Cytotoxicity against human Huh-7 cells assessed as cell growth inhibition incubated for 48 hrs by MTT assay; assay type: functional, cell-based; conditions: Huh-7, 48 h
[27] = Toxicity in nude mouse xenografted with human HCCLM3 cells assessed as spleen damage at 1 to 8 mg/kg, PO in presence of sorafenib measured for 21 days by H and E staining based analysis; assay type: organism-based; conditions: in vivo, 504 h, dose 1-8 mg/kg, time 21 day
MHCC97H [28] = assay: Synergistic cytotoxicity against human MHCC97H cells assessed as cell growth inhibition by measuring synergy score at 1 to 16 uM incubated for 48 hrs in presence of sorafenib at 1 to 16 uM by MTT assay; assay type: functional; conditions: dose 1-16 µM
[29] = Toxicity in nude mouse xenografted with human HCCLM3 cells assessed as lung damage at 4 to 8 mg/kg, PO measured for 21 days by H and E staining based analysis; assay type: organism-based; conditions: in vivo, 504 h, dose 4-8 mg/kg, time 21 day
HCCLM3 [30] = assay: Inhibition of mitochondrial respiratory chain complex I in human HCCLM3 incubated for 24 hrs; assay type: cell-based
[31] = Toxicity in nude mouse xenografted with human HCCLM3 cells assessed as spleen damage at 4 to 8 mg/kg, PO measured for 21 days by H and E staining based analysis; assay type: organism-based; conditions: in vivo, 504 h, dose 4-8 mg/kg, time 21 day
[32] = Toxicity in nude mouse xenografted with human HCCLM3 cells assessed as liver damage at 1 to 8 mg/kg, PO in presence of sorafenib measured for 21 days by H and E staining based analysis; assay type: organism-based; conditions: in vivo, 504 h, dose 1-8 mg/kg, time 21 day
HCCLM3 [33] = assay: Synergistic cytotoxicity against human HCCLM3 cells assessed as cell growth inhibition by measuring synergy score at 1 to 16 uM incubated for 48 hrs in presence of sorafenib at 1 to 16 uM by MTT assay; assay type: functional; conditions: dose 1-16 µM
HepG2 [34] = assay: Inhibition of mitochondrial function in human HepG2 cells assessed as reduction in ATP production at 8 uM incubated for 48 hrs; assay type: functional, cell-based
HepG2 [35] = assay: Synergistic cytotoxicity against human HepG2 cells assessed as cell growth inhibition by measuring synergy score at 1 to 16 uM incubated for 48 hrs in presence of sorafenib at 1 to 16 uM by MTT assay; assay type: functional; conditions: dose 1-16 µM
Huh-7 [36] = assay: Synergistic inhibition of mitochondrial function in human Huh-7 cells assessed as reduction in intracellular ATP level at 8 uM incubated for 48 hrs in presence of 16 uM sorafenib; assay type: functional, cell-based
MHCC97H [37] = assay: Synergistic inhibition of mitochondrial function in human MHCC97H cells assessed as reduction in intracellular ATP level at 8 uM incubated for 48 hrs in presence of 16 uM sorafenib; assay type: functional, cell-based
HCCLM3 [38] = assay: Induction of apoptosis in human HCCLM3 cells assessed as late apoptotic cells at 4 uM incubated for 48 hrs in presence of 4uM sorafenib by Annexin V/FITC-PI staining based flow cytometry (reference value: 0.07%); assay type: functional
[39] = Toxicity in nude mouse xenografted with human HCCLM3 cells assessed as decrease in body weight at 1 to 8 mg/kg, PO in presence of sorafenib measured every other day for 21 days; assay type: organism-based; conditions: in vivo, 504 h, dose 1-8 mg/kg, time 21 day
HCCLM3 [40] = assay: Synergistic antitumor activity against human HCCLM3 cells xenografted in nude mouse assessed as decrease in tumor weight at 4 to 8 mg/kg, PO in presence of 32 mg/kg sorafenib measured every other day for 21 days; assay type: functional, organism-based; conditions: dose 4-8 mg/kg, time 21.0 day
HCCLM3 [41] = assay: Induction of apoptosis in human HCCLM3 cells assessed as early apoptotic cells at 4 uM incubated for 48 hrs in presence of 4uM sorafenib by Annexin V/FITC-PI staining based flow cytometry (reference value: 0.05%); assay type: functional
[42] = Toxicity in nude mouse xenografted with human HCCLM3 cells assessed as kidney damage at 4 to 8 mg/kg, PO measured for 21 days by H and E staining based analysis; assay type: organism-based; conditions: in vivo, 504 h, dose 4-8 mg/kg, time 21 day

SMILES: CCCCCCCCCCCC[C@@H](O)[C@H]1CC[C@H]([C@H](O)CCCC[C@@H](O)CCCCC[C@@H](O)CC2=C[C@H](C)OC2=O)O1
- Activity [1]: Non-Toxic
- Activity [2]: Non-Toxic
- Activity (HCCLM3 [3]): Active
- Activity (HCCLM3 [4]): Active
- inhibition (MHCC97H [5]): Active
- inhibition (HCCLM3 [6]): Active
- Activity (HCCLM3 [7]): Active
- Activity [8]: Non-Toxic
- IC50 (HCCLM3 [9]): 7.4 µM
- viability at 4 µM (HCCLM3 [10]): 93.6%
- Activity (HCCLM3 [11]): Active
- inhibition (Huh-7 [12]): Active
- Activity (Huh-7 [13]): 1.6
- Activity (HCCLM3 [14]): 1.7%
- IC50 (HepG2 [15]): 7.4 µM
- Activity (HCCLM3 [16]): 18.5%
- Activity (HCCLM3 [17]): 5.02%
- Activity [18]: Non-Toxic
- Activity (HCCLM3 [19]): 1.46%
- Activity (HCCLM3 [20]): 3.24%
- viability at 4 µM (HCCLM3 [21]): 73.8%
- Activity [22]: Non-Toxic
- inhibition (HepG2 [23]): Active
- Activity [24]: Non-Toxic
- IC50 (MHCC97H [25]): 7.4 µM
- IC50 (Huh-7 [26]): 7.4 µM
- Activity [27]: Non-Toxic
- Activity (MHCC97H [28]): 0.7
- Activity [29]: Non-Toxic
- inhibition (HCCLM3 [30]): Active
- Activity [31]: Non-Toxic
- Activity [32]: Non-Toxic
- Activity (HCCLM3 [33]): 12.1
- inhibition (HepG2 [34]): Active
- Activity (HepG2 [35]): 4.1
- inhibition (Huh-7 [36]): Active
- inhibition (MHCC97H [37]): Active
- Activity (HCCLM3 [38]): 3.24%
- Activity [39]: Non-Toxic
- Activity (HCCLM3 [40]): Active
- Activity (HCCLM3 [41]): 17.91%
- Activity [42]: Non-Toxic
